Target: purified human Factor XIa (Homo sapiens (Human), UniProt P03951)
Assay: Factor XIa assay (chromogenic substrate S-2366 hydrolysis, Ki)
Assay type: biochemical
Details: measured at 37° C.
Method: The effectiveness of compounds of the present invention as inhibitors of the coagulation Factors XIa, VIIa, IXa, Xa, XIIa, plasma kallikrein or thrombin, can be determined using a relevant purified serine protease, respectively, and an appropriate synthetic substrate. The rate of hydrolysis of the chromogenic or fluorogenic substrate by the relevant serine protease was measured both in the absence and presence of compounds of the present invention. […] A decrease in the rate of absorbance or fluorescence change in the presence of inhibitor is indicative of enzyme inhibition. Such methods are known to one skilled in the art. The results of this assay are expressed as the inhibitory constant, Ki.
Factor XIa determinations were made in 50 mM HEPES buffer at pH 7.4 containing 145 mM NaCl, 5 mM KCl, and 0.1% PEG 8000 (polyethylene glycol; JT Baker or Fisher Scientific). Determinations were made using purified human Factor XIa at a final concentration of 25-200 pM (Haematologic Technologies) and the synthetic substrate S-2366 (pyroGlu-Pro-Arg-pNA; CHROMOGENIX® or AnaSpec) at a concentration of 0.0002-0.001 M.
The Michaelis constant, Km, for substrate hydrolysis by each protease, was determined at 25° C. or 37° C. in the absence of inhibitor. Values of Ki were determined by allowing the protease to react with the substrate in the presence of the inhibitor. […] The following relationships were used to calculate Ki values: (Vmax*S)/(Km+S); (vo−vs)/vs=I/(Ki(1+S/Km)) for a competitive inhibitor with one binding site; or vs/vo=A+(B−A)/(1+(I/IC50)^n); and Ki=IC50/(1+S/Km) for a competitive inhibitor where: […]

purified human Factor XIa, sequence (P03951 388-625): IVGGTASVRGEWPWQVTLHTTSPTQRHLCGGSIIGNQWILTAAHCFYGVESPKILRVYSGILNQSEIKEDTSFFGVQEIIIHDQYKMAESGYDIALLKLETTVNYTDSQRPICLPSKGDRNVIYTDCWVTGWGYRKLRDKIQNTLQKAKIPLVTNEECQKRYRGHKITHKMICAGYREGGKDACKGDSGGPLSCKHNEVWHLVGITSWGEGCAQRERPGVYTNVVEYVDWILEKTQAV
purified human Factor XIa, sequence (P03951 19-387 partner): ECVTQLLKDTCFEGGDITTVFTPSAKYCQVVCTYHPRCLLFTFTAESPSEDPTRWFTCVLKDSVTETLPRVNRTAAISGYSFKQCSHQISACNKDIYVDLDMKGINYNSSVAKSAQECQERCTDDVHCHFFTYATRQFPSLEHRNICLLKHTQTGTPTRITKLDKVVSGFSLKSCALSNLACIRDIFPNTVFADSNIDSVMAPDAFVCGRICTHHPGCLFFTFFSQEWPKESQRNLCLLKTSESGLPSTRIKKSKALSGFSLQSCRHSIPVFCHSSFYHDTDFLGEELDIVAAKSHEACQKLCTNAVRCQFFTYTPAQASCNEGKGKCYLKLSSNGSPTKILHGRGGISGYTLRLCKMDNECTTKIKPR

SMILES	Ki [µM]
COC(=O)Nc1ccc2c(c1)NC(=O)CCCCCC(C(=O)NCCC1CCN(C(=N)N)CC1)NC2=O (racemic) [Example 6, (±)-Methyl N-(8-{[2-(1-carbamimidoylpiperidin-4-yl)ethyl]carbamoyl}-2,10-dioxo-1,2,3,4,5,6,7,8,9,10-decahydro-1,9-benzodiazacyclododecin-13-yl)carbamate]	0.627
COC(=O)Nc1ccc2c(c1)NC(=O)CCCCCC(C(=O)NCc1csc3ccc(Cl)cc13)NC2=O (racemic) [Example 8, (±)-Methyl N-(8-{[(5-chloro-1-benzothiophen-3-yl)methyl]carbamoyl}-2,10-dioxo-1,2,3,4,5,6,7,8,9,10-decahydro-1,9-benzodiazacyclododecin-13-yl)carbamate]	1.34
COC(=O)Nc1ccc2c(c1)NC(=O)CCCCCC(C(=O)NCCc1cc(Cl)ccc1-n1cnnn1)NC2=O (single isomer, unassigned) [Example 3, Methyl N-[8-({2-[5-chloro-2-(1H-1,2,3,4-tetrazol-1-yl)phenyl]ethyl}carbamoyl)-2,10-dioxo-1,2,3,4,5,6,7,8,9,10-decahydro-1,9-benzodiazacyclododecin-13-yl]carbamate]	0.0419
COC(=O)Nc1ccc2c(c1)NC(=O)CCCCCC(C(=O)NCCc1cc(Cl)ccc1-n1cnnn1)NC2=O (single isomer, unassigned) [Example 2, Methyl N-[8-({2-[5-chloro-2-(1H-1,2,3,4-tetrazol-1-yl)phenyl]ethyl}carbamoyl)-2,10-dioxo-1,2,3,4,5,6,7,8,9,10-decahydro-1,9-benzodiazacyclododecin-13-yl]carbamate]	2.18
COC(=O)Nc1ccc2c(c1)NC(=O)CCCCCC(C(=O)NCCc1cc(Cl)ccc1-n1cnnn1)NC2=O (racemic) [Example 1, (±)-Methyl N-[8-({2-[5-chloro-2-(1H-1,2,3,4-tetrazol-1-yl)phenyl]ethyl}carbamoyl)-2,10-dioxo-1,2,3,4,5,6,7,8,9,10-decahydro-1,9-benzodiazacyclododecin-13-yl]carbamate]	0.0179
COC(=O)Nc1ccc2c(c1)NC(=O)CCCCCC(C(=O)NC1CCN(C(=N)N)CC1)NC2=O (racemic) [Example 4, (±)-Methyl N-{8-[(1-carbamimidoylpiperidin-4-yl)carbamoyl]-2,10-dioxo-1,2,3,4,5,6,7,8,9,10-decahydro-1,9-benzodiazacyclododecin-13-yl}carbamate]	1.49
COC(=O)Nc1ccc2c(c1)NC(=O)CCCCCC(C(=O)NC1Cc3ccccc3NC1=O)NC2=O (racemic) [Example 7, (±)-Methyl N-{2,10-dioxo-8-[(2-oxo-1,2,3,4-tetrahydroquinolin-3-yl)carbamoyl]-1,2,3,4,5,6,7,8,9,10-decahydro-1,9-benzodiazacyclododecin-13-yl}carbamate]	0.708
COC(=O)Nc1ccc2c(c1)NC(=O)CCCCCC(C(=O)NCC1CCN(C(=N)N)CC1)NC2=O (racemic) [Example 5, (±)-Methyl N-(8-{[(1-carbamimidoylpiperidin-4-yl)methyl]carbamoyl}-2,10-dioxo-1,2,3,4,5,6,7,8,9,10-decahydro-1,9-benzodiazacyclododecin-13-yl)carbamate]	0.825

More lines, now with the values ahead:

Ki [µM]	SMILES
< 0.005	COC(=O)Nc1ccc2c(c1)NC(=O)CCC=CCC(C(=O)NCCc1cc(Cl)ccc1-n1cnnn1)NC2=O (racemic) [Example 22, (E/Z)-(±)-Methyl N-[8-({2-[5-chloro-2-(1H-1,2,3,4-tetrazol-1-yl)phenyl]ethyl}carbamoyl)-2,10-dioxo-1,2,3,4,7,8,9,10-octahydro-1,9-benzodiazacyclododecin-13-yl]carbamate]
2.62	COC(=O)Nc1ccc2c(c1)NC(=O)CCCCCC(C(=O)N1CCCC(c3cccc(OC)c3)C1)NC2=O (racemic) [Example 10, (±)-Methyl N-{8-[3-(3-methoxyphenyl)piperidine-1-carbonyl]-2,10-dioxo-1,2,3,4,5,6,7,8,9,10-decahydro-1,9-benzodiazacyclododecin-13-yl}carbamate]
2.2	N=C(N)N1CCC(NC(=O)C2C/C=C\CCC(=O)Nc3ccccc3C(=O)N2)CC1 (racemic) [Example 30, (Z)-(±)-N-(1-Carbamimidoylpiperidin-4-yl)-2,10-dioxo-1,2,3,4,7,8,9,10-octahydro-1,9-benzodiazacyclododecine-8-carboxamide]
0.157	COC(=O)Nc1ccc2c(c1)NC(=O)CC/C=C\CC(C(=O)NCCc1cc(Cl)ccc1-n1cnnn1)NC2=O (single isomer, unassigned) [Example 23, (Z)-Methyl N-[8-({2-[5-chloro-2-(1H-1,2,3,4-tetrazol-1-yl)phenyl]ethyl}carbamoyl)-2,10-dioxo-1,2,3,4,7,8,9,10-octahydro-1,9-benzodiazacyclododecin-13-yl]carbamate]
1.4	N=C(N)N1CCC(CNC(=O)C2CC=CCCC(=O)Nc3ccccc3C(=O)N2)CC1 (racemic) [Example 29, (E/Z)-(±)-N-[(1-Carbamimidoylpiperidin-4-yl)methyl]-2,10-dioxo-1,2,3,4,7,8,9,10-octahydro-1,9-benzodiazacyclododecine-8-carboxamide]
0.153	COC(=O)Nc1ccc2c(c1)NC(=O)CC/C=C\CC(C(=O)NCCc1cc(Cl)ccc1-n1cnnn1)NC2=O (single isomer, unassigned) [Example 24, (Z)-Methyl N-[8-({2-[5-chloro-2-(1H-1,2,3,4-tetrazol-1-yl)phenyl]ethyl}carbamoyl)-2,10-dioxo-1,2,3,4,7,8,9,10-octahydro-1,9-benzodiazacyclododecin-13-yl]carbamate]
0.0641	COC(=O)Nc1ccc2c(c1)NC(=O)CC/C=C/CC(C(=O)NCCc1cc(Cl)ccc1-n1cnnn1)NC2=O (single isomer, unassigned) [Example 26, (E)-Methyl N-[8-({2-[5-chloro-2-(1H-1,2,3,4-tetrazol-1-yl)phenyl]ethyl}carbamoyl)-2,10-dioxo-1,2,3,4,7,8,9,10-octahydro-1,9-benzodiazacyclododecin-13-yl]carbamate]
< 0.005	COC(=O)Nc1ccc2c(c1)NC(=O)CC/C=C/CC(C(=O)NCCc1cc(Cl)ccc1-n1cnnn1)NC2=O (single isomer, unassigned) [Example 25, (E)-Methyl N-[8-({2-[5-chloro-2-(1H-1,2,3,4-tetrazol-1-yl)phenyl]ethyl}carbamoyl)-2,10-dioxo-1,2,3,4,7,8,9,10-octahydro-1,9-benzodiazacyclododecin-13-yl]carbamate]
0.811	N=C(N)N1CCC(NC(=O)C2C/C=C/CCC(=O)Nc3ccccc3C(=O)N2)CC1 (racemic) [Example 31, (E)-(±)-N-(1-Carbamimidoylpiperidin-4-yl)-2,10-dioxo-1,2,3,4,7,8,9,10-octahydro-1,9-benzodiazacyclododecine-8-carboxamide]
0.0391	O=C1CCC=CCC(C(=O)NCCc2cc(Cl)ccc2-n2cnnn2)NC(=O)c2ccccc2N1 (racemic) [Example 27, (E/Z)-(±)-N-{2-[5-Chloro-2-(1H-1,2,3,4-tetrazol-1-yl)phenyl]ethyl}-2,10-dioxo-1,2,3,4,7,8,9,10-octahydro-1,9-benzodiazacyclododecine-8-carboxamide]

From patent publication US10081623B2, “Diamide macrocycles that are FXIa inhibitors” (BRISTOL-MYERS SQUIBB COMPANY, priority 2014, dated 2018)
